Test results: patent US10093683B2, “Factor XIa inhibitors” (Merck Sharp & Dohme Corp., priority 2014, dated 2018)
Where two headings read alike, the source gives them in different places.

How the values were obtained:
Human plasma kallikrein = Human plasma kallikrein (Homo sapiens (Human), UniProt P03952); assay: Kallikrein Assay; type: biochemical; conditions: purified Human plasma kallikrein 0.5 nM, Acetyl-K-P-R-AFC, pH 7.4; Ki from IC50 by Cheng Prusoff
Method in brief: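 Purified human plasma kallikrein (0.5 nM final) with Acetyl-K-P-R-AFC substrate ([…]) in 50 mM HEPES pH 7.4, 150 mM NaCl, 5 mM CaCl2, 0.1% PEG 8000, after enzyme-inhibitor equilibration. Fluorescence (405 ex/510 em) under linear conditions; IC50 from four-parameter fit, converted to Ki by Cheng-Prusoff.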

human Factor XIa = human Factor XIa (Homo sapiens (Human), UniProt P03951); assay: Factor XIa Assay; type: biochemical; conditions: read-out: FXIa Ki
Method in brief: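 Ki derived from the dependence of Vo/Vi on inhibitor concentration under a competitive-inhibition model, after pre-equilibration of enzyme and inhibitor. Reaction: 40 pM human FXIa, 100 μM Z-Gly-Pro-Arg-AFC, HEPES 50 mM pH 7.4 with NaCl, CaCl2 and PEG 8000; run at room temperature or 37° C.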

[1] = purified human Factor XIa 40 pM, Z-Gly-Pro-Arg-AFC 100 μM, pH 7.4

Chain of human Factor XIa (P03951 388-625): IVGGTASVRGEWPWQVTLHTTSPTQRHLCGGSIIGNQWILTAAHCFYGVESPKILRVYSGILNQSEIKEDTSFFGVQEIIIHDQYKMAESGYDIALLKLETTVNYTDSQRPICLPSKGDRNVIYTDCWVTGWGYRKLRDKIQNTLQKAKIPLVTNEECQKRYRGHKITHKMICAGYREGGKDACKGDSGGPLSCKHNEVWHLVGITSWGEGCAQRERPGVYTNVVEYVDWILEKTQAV
Chain of human Factor XIa (P03951 19-387 partner): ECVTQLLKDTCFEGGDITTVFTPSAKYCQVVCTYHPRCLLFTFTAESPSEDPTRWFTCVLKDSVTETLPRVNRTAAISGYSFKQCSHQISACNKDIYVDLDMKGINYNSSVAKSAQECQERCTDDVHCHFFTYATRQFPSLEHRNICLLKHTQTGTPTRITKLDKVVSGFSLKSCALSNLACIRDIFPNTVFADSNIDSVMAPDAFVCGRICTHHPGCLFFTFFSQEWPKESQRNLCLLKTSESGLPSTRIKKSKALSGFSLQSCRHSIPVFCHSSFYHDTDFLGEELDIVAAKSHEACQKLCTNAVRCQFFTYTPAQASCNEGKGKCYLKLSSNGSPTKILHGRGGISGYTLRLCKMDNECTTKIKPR
Chain of Human plasma kallikrein (P03952 391-638): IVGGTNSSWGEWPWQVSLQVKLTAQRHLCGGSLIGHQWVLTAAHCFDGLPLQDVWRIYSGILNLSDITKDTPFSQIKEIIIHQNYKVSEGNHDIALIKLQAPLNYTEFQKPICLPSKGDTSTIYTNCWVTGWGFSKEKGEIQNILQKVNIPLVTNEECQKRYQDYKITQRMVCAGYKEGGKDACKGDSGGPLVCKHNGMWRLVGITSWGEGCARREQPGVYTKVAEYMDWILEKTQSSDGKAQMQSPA
Chain of Human plasma kallikrein (P03952 20-390 partner): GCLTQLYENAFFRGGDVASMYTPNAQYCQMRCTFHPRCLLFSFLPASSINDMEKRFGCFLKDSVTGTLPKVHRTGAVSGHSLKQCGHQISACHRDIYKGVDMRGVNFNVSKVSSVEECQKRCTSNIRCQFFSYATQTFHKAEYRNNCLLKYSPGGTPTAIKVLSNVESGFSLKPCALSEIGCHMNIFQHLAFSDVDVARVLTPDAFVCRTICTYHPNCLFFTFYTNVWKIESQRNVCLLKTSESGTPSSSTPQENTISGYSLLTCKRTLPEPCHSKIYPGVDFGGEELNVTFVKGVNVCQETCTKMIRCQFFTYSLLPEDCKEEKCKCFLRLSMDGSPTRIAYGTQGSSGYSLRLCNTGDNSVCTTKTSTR

SMILES | Ki (Human plasma kallikrein) [nM] | Ki (human Factor XIa; [1]) [nM] | Ki (human Factor XIa) [nM]
COC(=O)Nc1ccc(C(=O)N[C@@H](Cc2ccc(F)cn2)C(=O)N2CCC[C@@]3(C2)OC(=O)Nc2ccc(Cl)c(F)c23)cc1 [Example 74, methyl (4-(((S)-1-((R)-6-chloro-5-fluoro-2-oxo-1,2-dihydrospiro[benzo[d][1,3]oxazine-4,3′-piperidin]-1′-yl)-3-(5-fluoropyridin-2-yl)-1-oxopropan-2-yl)carbamoyl)phenyl)carbamate] | 2.53 | 2.82 | –
COC(=O)Nc1ccc(C(=O)N[C@@H](CC2CC2(F)F)C(=O)N2CCC[C@@]3(C2)OC(=O)Nc2ccc(Cl)c(F)c23)cc1 (single isomer, unassigned) [Example 67A] | 2.9 | 11.6 | –
COC(=O)Nc1ccc(C(=O)N[C@@H](Cc2ccsc2)C(=O)N2CCC3(C2)OC(=O)Nc2ccc(Cl)cc23)cc1 (stereo partly drawn) [Example 32, methyl (4-(((2S)-1-(6-chloro-2-oxo-1,2-dihydrospiro[benzo[d][1,3]oxazine-4,3′-pyrrolidin]-1′-yl)-1-oxo-3-(thiophen-3-yl)propan-2-yl)carbamoyl)phenyl)carbamate] | 42.2 | 16 | –
COC(=O)Nc1ccc(C(=O)N[C@@H](CC2CCOCC2)C(=O)N2CCC[C@@]3(C2)OC(=O)Nc2ccc(Cl)cc23)cc1 [Example 65, methyl (4-(((S)-1-((R)-6-chloro-2-oxo-1,2-dihydrospiro[benzo[d][1,3]oxazine-4,3′-piperidin]-1′-yl)-1-oxo-3-(tetrahydro-2H-pyran-4-yl)propan-2-yl)carbamoyl)phenyl)carbamate] | 5.4 | 41.5 | –
O=C1Nc2ccc(Cl)cc2C2(CCN(C(=O)[C@H](Cc3ccccc3)NC(=O)c3ccc(Nc4ncc[nH]4)cc3)C2)O1 (some centres unmarked) [Example 188] | 155 | – | 42
COC(=O)Nc1ccc(C(=O)N[C@@H](CC(=O)N2CC[C@@H](OC)C2)C(=O)N2CCC[C@@]3(C2)OC(=O)Nc2ccc(Cl)cc23)cc1 [Example 101, methyl (4-(((S)-1-((R)-6-chloro-2-oxo-1,2-dihydrospiro[benzo[d][1,3]oxazine-4,3′-piperidin]-1′-yl)-4-((R)-3-methoxypyrrolidin-1-yl)-1,4-dioxobutan-2-yl)carbamoyl)phenyl)carbamate] | 10.3 | 36.4 | –
Cc1cc2cc(C(=O)N[C@@H](Cc3ccccc3)C(=O)N3CCC[C@@]4(C3)OC(=O)Nc3ccc(Cl)cc34)ccc2[nH]1 [Example 250] | 13.3 | – | 41.9
Nc1n[nH]c2cc(C(=O)N[C@@H](Cc3ccncc3)C(=O)N3CC[C@@]4(C3)OC(=O)Nc3ccc(Cl)cc34)ccc12 [Example 258] | 4.08 | – | 1.73
O=C1CSc2cc(C(=O)N[C@@H](Cc3ccccc3)C(=O)N3CCC4(C3)OC(=O)Nc3ccc(Cl)cc34)ccc2N1 (some centres unmarked) [Example 165] | 27.5 | – | 14.6
O=C1Nc2ccc(Cl)cc2[C@@]2(CCCN(C(=O)[C@H](Cc3ccccc3)NC(=O)c3ccc(C(=O)O)s3)C2)O1 [Example 203] | 2.1 | – | 10.3
Nc1n[nH]c2cc(C(=O)N[C@@H](CC(=O)N3CCCC3)C(=O)N3CCC[C@@]4(C3)OC(=O)Nc3ccc(Cl)cc34)ccc12 [Example 268] | 0.9 | – | 0.85
COC(=O)Nc1ccc(C(=O)N[C@@H](Cc2ccc(C(=O)c3ccccc3)cc2)C(=O)N2CCC3(C2)OC(=O)Nc2ccc(Cl)cc23)cc1 (stereo partly drawn) [Example 39, methyl (4-(((2S)-3-(4-benzoylphenyl)-1-(6-chloro-2-oxo-1,2-dihydrospiro[benzo[d][1,3]oxazine-4,3′-pyrrolidin]-1′-yl)-1-oxopropan-2-yl)carbamoyl)phenyl)carbamate] | 86.6 | 39.3 | –
COC(=O)Nc1ccc(C(=O)N[C@@H](CC2CC2)C(=O)N2CCC[C@@]3(C2)OC(=O)Nc2ccc(Cl)c(F)c23)cc1 [Example 63, methyl (4-(((S)-1-((R)-6-chloro-5-fluoro-2-oxo-1,2-dihydrospiro[benzo[d][1,3]oxazine-4,3′-piperidin]-1′-yl)-3-cyclopropyl-1-oxopropan-2-yl)carbamoyl)phenyl)carbamate] | 1.73 | 5.64 | –
